These results are taken from patent US9393221B2, “Methods and compounds for reducing intracellular lipid storage” (THE GENERAL HOSPITAL CORPORATION, priority 2011, dated 2016).

Structures can show the parent of a compound that is named as a salt.

The subject of one assay is ATGL-KO iPSCs. As to the kind of experiment: High throughput iPSC chemical screening, Oil Red O (ORO) lipid accumulation. For Z-score: test concentration or dose not given here. The format is cell-based, mouse.
Settings: not given
Consider `CNCCC(Oc1ccccc1OC)c1ccccc1` (stereo not drawn) [Nisoxetine hydrochloride], for which the Z-score is given as −1.699.

Staying with this assay, now noted: glycolytic switch compounds.
Turning to `O=C(N/N=C/c1ccc([N+](=O)[O-])o1)c1ccc(O)cc1` [Nifuroxazide], the “Rank in normalized ORO score from screen” value was found to be 957.

The assay is the same for the next values; noted with them: normalized ORO level vs DMSO-treated cells; compound present during 7 days differentiation, 96-well; negative = decrease in lipid accumulation.
`CCN[C@@H]1C[C@H](N)[C@@H](O[C@H]2OC(CN)=CC[C@H]2N)[C@H](O)[C@H]1O[C@H]1OC[C@](C)(O)[C@H](NC)[C@H]1O.CCN[C@@H]1C[C@H](N)[C@@H](O[C@H]2OC(CN)=CC[C@H]2N)[C@H](O)[C@H]1O[C@H]1OC[C@](C)(O)[C@H](NC)[C@H]1O.O=S(=O)(O)O.O=S(=O)(O)O.O=S(=O)(O)O.O=S(=O)(O)O.O=S(=O)(O)O` [Netilmicin sulfate] yielded a Z-score of 1.062.

Compound `O=C(O)c1cccnc1` [Niacin] came in with a Z-score of −0.8285.

For `O=C(CCNNC(=O)c1ccncc1)NCc1ccccc1` [Nialamide], the Z-score came out at 0.6794.

Consider `COC(=O)C1=C(C)NC(C)=C(C(=O)OCCN(C)Cc2ccccc2)C1c1cccc([N+](=O)[O-])c1` (stereo not drawn) [Nicardipine hydrochloride], for which the Z-score came to 1.451.

Take `CO[C@]12C[C@@H](COC(=O)c3cncc(Br)c3)CN(C)[C@@H]1Cc1cn(C)c3cccc2c13` [Nicergoline]: the Z-score was determined as 0.2433.

The compound `O=C(Nc1ccc([N+](=O)[O-])cc1Cl)c1cc(Cl)ccc1O` [Niclosamide] came in with a Z-score of 25.4633.

For the compound `Cc1c(NC(=O)c2cccnc2)c(=O)n(-c2ccccc2)n1C` [Nifenazone], the Z-score is on record as 0.1131.

In turn, `O=C(O)c1cccnc1Nc1cccc(C(F)(F)F)c1` [Niflumic acid] displayed a Z-score of −0.6436.

Compound `O=C(N/N=C/c1ccc([N+](=O)[O-])o1)c1ccc(O)cc1` [Nifuroxazide] yielded a Z-score of 1.279.

`CC1CS(=O)(=O)CCN1/N=C/c1ccc([N+](=O)[O-])o1` (stereo not drawn) [Nifurtimox] yielded a Z-score of 0.2485.

Turning to `CC1(C)NC(=O)N(c2ccc([N+](=O)[O-])c(C(F)(F)F)c2)C1=O` [Nilutamide], the Z-score was −1.5582.

For the compound `CS(=O)(=O)Nc1ccc([N+](=O)[O-])cc1Oc1ccccc1` [Nimesulide], the Z-score is −1.0153.

For `COCCOC(=O)C1=C(C)NC(C)=C(C(=O)OC(C)C)C1c1cccc([N+](=O)[O-])c1` (stereo not drawn) [Nimodipine], the Z-score is reported as −1.6971.

`O=C1NCCN1c1ncc([N+](=O)[O-])s1` [Niridazole] returned a Z-score of 1.446.

`Cl.Cl.c1ccc2c3c([nH]c2c1)C1C2CCC(C4CCCNC42)N1CC3` (stereo not drawn) [Nitrarine dihydrochloride] came in with a Z-score of −0.8582.

In the case of `CCOC(=O)C1=C(C)NC(C)=C(C(=O)OC)C1c1cccc([N+](=O)[O-])c1` (stereo not drawn) [Nitrendipine], the Z-score was −1.7782.

Compound `CCN(CC)CCOC(=O)C1(c2ccc([N+](=O)[O-])cc2)CCCC1.Cl` [Nitrocaramiphen hydrochloride] gave a Z-score of −1.1255.

The compound `NC(=O)N/N=C/c1ccc([N+](=O)[O-])o1` [Nitrofural] had a Z-score of −0.866.

Regarding `O=C1CN(/N=C/c2ccc([N+](=O)[O-])o2)C(=O)N1` [Nitrofurantoin], the Z-score came out at 0.3631.

`CNC(=C[N+](=O)[O-])NCCSCc1csc(CN(C)C)n1` [Nizatidine] yielded a Z-score of −0.1369.

The compound `COC(=O)Nc1nc2ccc(C(=O)c3cccs3)cc2[nH]1` [Nocodazole] displayed a Z-score of 18.0445.

Take `CC(=O)O[C@]1(C(C)=O)CC[C@H]2[C@@H]3C=C(C)C4=CC(=O)CC[C@@H]4[C@H]3CC[C@@]21C` [Nomegestrol acetate]: the Z-score turned out to be 1.552.

`CN1Cc2c(N)cccc2C(c2ccccc2)C1` (stereo not drawn) [Nomifensine maleate]: the Z-score is recorded as −1.3149.

In the case of `CNCCC=C1c2ccccc2C=Cc2ccccc21` [Norcyclobenzaprine], the Z-score is −0.6046.

Take `C#C[C@]1(O)CC[C@H]2[C@@H]3CCC4=CC(=O)CC[C@@H]4[C@H]3CC[C@@]21C` [Norethindrone]: the Z-score is listed as −0.6688.

On to `C#C[C@]1(O)CC[C@H]2[C@@H]3CCC4=C(CCC(=O)C4)[C@H]3CC[C@@]21C` [Norethynodrel], for which the Z-score is on record as −0.7872.

Regarding `CCn1cc(C(=O)O)c(=O)c2cc(F)c(N3CCNCC3)cc21` [Norfloxacin], the Z-score is 0.6666.

Compound `C#C[C@]1(O)CC[C@H]2[C@@H]3CCC4=CC(=O)CC[C@@H]4[C@H]3CC[C@@]21CC` [Norgestrel-(−)-D] had a Z-score of 1.412.

On to `CNCCC=C1c2ccccc2CCc2ccccc21` [Nortriptyline hydrochloride], for which the Z-score was −1.28.

For `COc1ccc2c(c1OC)C(=O)O[C@@H]2[C@H]1c2c(cc3c(c2OC)OCO3)CCN1C` [Noscapine], the Z-score stood at 0.8948.

With `CO[C@@H]1[C@@H](OC(N)=O)[C@@H](O)[C@H](Oc2ccc3c(O)c(NC(=O)c4ccc(O)c(CC=C(C)C)c4)c(=O)oc3c2C)OC1(C)C` [Novobiocin sodium salt], the Z-score was −1.5591.

`C[C@@H]1[C@H](O)[C@@H](C)/C=C/C=C/CC/C=C/C=C/C=C/C=C/C(O[C@H]2O[C@H](C)[C@@H](O)[C@H](N)[C@@H]2O)CC2O[C@](O)(CC(O)C(O)CCC(O)CC(O)CC(O)CC(=O)O[C@H]1C)CC(O)C2C(=O)O` (stereo partly drawn) [Nystatine] returned a Z-score of −0.6743.

For the compound `CC1COc2c(N3CCN(C)CC3)c(F)cc3c(=O)c(C(=O)O)cn1c23` (stereo not drawn) [Ofloxacin], the Z-score is given as 0.7623.

The compound `CO[C@H]1C[C@H](O[C@H]2[C@H](C)[C@@H](O[C@@H]3O[C@H](C)C[C@H](N(C)C)[C@H]3O)[C@@H](C)C[C@@]3(CO3)C(=O)[C@H](C)[C@@H](O)[C@@H](C)[C@@H](C)OC(=O)[C@@H]2C)O[C@@H](C)[C@@H]1O` [Oleandomycin phosphate] registered a Z-score of 0.5069.

Take `COc1ccc2[nH]c([S+]([O-])Cc3ncc(C)c(OC)c3C)nc2c1` (stereo not drawn) [Omeprazole]: the Z-score is recorded as −0.5848.

`Cc1nccn1CC1CCc2c(c3ccccc3n2C)C1=O` (stereo not drawn) [Ondansetron Hydrochloride] returned a Z-score of −0.6933.

`Cc1ncc([N+](=O)[O-])n1CC(O)CCl` (stereo not drawn) [Ornidazole] had a Z-score of 0.7824.

The compound `Cc1ccccc1C(OCCN(C)C)c1ccccc1` (stereo not drawn) [Orphenadrine hydrochloride] yielded a Z-score of −0.3046.

On to `CCN(CC)CCc1nc(-c2ccccc2)no1.O=C(O)CC(O)(CC(=O)O)C(=O)O` [Oxalamine citrate salt], for which the Z-score was −1.3452.

`CN1CCCN=C1/C=C/c1cccc(O)c1.O=C(O)c1cc2ccccc2c(Cc2c(O)c(C(=O)O)cc3ccccc23)c1O` [Oxantel pamoate]: the Z-score is recorded as 1.422.

`O=C(O)CCc1nc(-c2ccccc2)c(-c2ccccc2)o1` [Oxaprozin] displayed a Z-score of −1.009.

In the case of `CN(C(=O)CN(CCO)CC(=O)N(C)C(C)(C)Cc1ccccc1)C(C)(C)Cc1ccccc1` [Oxethazaine], the Z-score is recorded as −0.9515.

`CCn1cc(C(=O)O)c(=O)c2cc3c(cc21)OCO3` [Oxolinic acid]: the Z-score is −1.0488.

`C=CCOc1ccccc1OCC(O)CNC(C)C` (stereo not drawn) [Oxprenolol hydrochloride] had a Z-score of −0.2057.

Regarding `COc1ccc(C(=O)c2ccccc2)c(O)c1` [Oxybenzone], the Z-score was −1.1732.

The compound `CCN(CC)CC#CCOC(=O)C(O)(c1ccccc1)C1CCCCC1` (stereo not drawn) [Oxybutynin chloride] returned a Z-score of −1.0993.

`Cc1cc(C(C)(C)C)c(O)c(C)c1CC1=NCCN1` [Oxymetazoline hydrochloride] came in with a Z-score of 0.1199.

On to `CCCCC1C(=O)N(c2ccccc2)N(c2ccc(O)cc2)C1=O` (stereo not drawn) [Oxyphenbutazone], for which the Z-score is on record as −1.1165.

`CN(C)[C@@H]1C(O)=C(C(N)=O)C(=O)[C@@]2(O)C(O)=C3C(=O)c4c(O)cccc4[C@@](C)(O)[C@H]3[C@H](O)[C@@H]12` [Oxytetracycline dihydrate] had a Z-score of 1.185.

With `O=C(O)/C=C/c1ccc(Cn2ccnc2)cc1` [Ozagrel hydrochloride], the Z-score is on record as −0.6787.

`CC(=O)O[C@H]1C(=O)[C@@]2(C)[C@H]([C@H](OC(=O)c3ccccc3)[C@]3(O)C[C@H](OC(=O)[C@H](O)[C@@H](NC(=O)c4ccccc4)c4ccccc4)C(C)=C1C3(C)C)[C@]1(OC(C)=O)CO[C@@H]1C[C@@H]2O` [Paclitaxel]: the Z-score amounted to 48.9183.

In turn, `COc1cc2c(cc1OC)-c1cc3ccc(OC)c(OC)c3c[n+]1CC2` [Palmatine chloride] had a Z-score of 6.905.

In turn, `CC(=O)O[C@H]1C[C@@H]2CC[C@@H]3[C@H](CC[C@@]4(C)[C@H]3C[C@H]([N+]3(C)CCCCC3)[C@@H]4OC(C)=O)[C@@]2(C)C[C@@H]1[N+]1(C)CCCCC1` [Pancuronium bromide] displayed a Z-score of 0.2708.

The compound `CC(C)(CO)[C@@H](O)C(=O)NCCCO` [Panthenol (D)] gave a Z-score of −0.069.

For `CC(C)(CO)[C@@H](O)C(=O)NCCC(=O)O` [Pantothenic acid calcium salt monohydrate], the Z-score was −1.5008.

The compound `COc1ccc(Cc2nccc3cc(OC)c(OC)cc23)cc1OC` [Papaverine hydrochloride] came in with a Z-score of 9.542.

`CCCCc1ccc2[nH]c(NC(=O)OC)nc2c1` [Parbendazole]: the Z-score is on record as 39.1106.

The compound `C#CCN(C)Cc1ccccc1` [Pargyline hydrochloride] came in with a Z-score of −0.735.

For `NC[C@@H]1O[C@H](O[C@H]2[C@@H](O)[C@H](O[C@@H]3[C@@H](O)[C@H](N)C[C@H](N)[C@H]3O[C@H]3O[C@H](CO)[C@@H](O)[C@H](O)[C@H]3N)O[C@@H]2CO)[C@H](N)[C@@H](O)[C@@H]1O` [Paromomycin sulfate], the Z-score was −0.0138.

`Fc1ccc([C@@H]2CCNC[C@H]2COc2ccc3c(c2)OCO3)cc1` [Paroxetine Hydrochloride] returned a Z-score of −0.9182.

As to `CN1C(C)(C)CCCC1(C)C` [Pempidine tartrate], the Z-score was −0.8069.

For `CC(C)(C)NC[C@H](O)COc1ccccc1C1CCCC1` [Penbutolol sulfate], the Z-score is −0.627.

Compound `N=C(N)c1ccc(OCCCCCOc2ccc(C(=N)N)cc2)cc1` [Pentamidine isethionate] displayed a Z-score of 14.9126.

Regarding `O=C(O)CN(CCN(CC(=O)O)CC(=O)O)CCN(CC(=O)O)CC(=O)O` [Pentetic acid], the Z-score turned out to be 0.9077.
